Laboratory results as given in patent US8426441B2, “Inhibitors of bruton's tyrosine kinase” (Roche Palo Alto LLC, priority 2007, dated 2013).

Structure (SMILES) | melting point
Cc1c(NC(=O)c2ccc(C(C)(C)C)cc2)cccc1-c1cc(NC(=O)NC(C)(C)C)c2nccn2n1 [Example I-10, 4-tert-Butyl-N-{3-[8-(3-tert-butyl-ureido)-imidazo[1,2-b]pyridazin-6-yl]-2-methyl-phenyl}-benzamide] | 191 to 193 °C
Cc1c(NC(=O)c2ccc(C(C)(C)C)cc2)cccc1-c1cc(NC(=O)NC(C)C)c2nccn2n1 [Example I-6, 4-tert-Butyl-N-{3-[8-(3-isopropyl-ureido)-imidazo[1,2-b]pyridazin-6-yl]-2-methyl-phenyl}-benzamide] | 178 to 180 °C
C1=C(c2cc(Nc3ccccn3)c3nccn3n2)CCCC1 [Example I-3, (6-Cyclohex-1-enyl-imidazo[1,2-b]pyridazin-8-yl)-pyridin-2-yl-amine] | 160.7 to 161.5 °C
Cc1c(NC(=O)c2ccc(N(C)C)cc2)cccc1-c1cc(NC(=O)NCCCN2CCOCC2)c2nccn2c1 [Example I-68, 4-Dimethylamino-N-(2-methyl-3-{8-[3-(3-morpholin-4-yl-propyl)-ureido]-imidazo[1,2-a]pyridin-6-yl}-phenyl)-benzamide] | 190.2 to 209.7 °C
CNC(=O)Nc1cc(-c2ccccc2)cn2ccnc12 [Example I-61, 1-Methyl-3-(6-phenyl-imidazo[1,2-a]pyridin-8-yl)-urea] | 69 to 70 °C
CNC(=O)Nc1cc(-c2cccc(CC(=O)N3Cc4ccccc4C3)c2)nn2ccnc12 [Example I-14, 1-(6-{3-[2-(1,3-Dihydro-isoindol-2-yl)-2-oxo-ethyl]-phenyl}-imidazo[1,2-b]pyridazin-8-yl)-3-methyl-urea] | 244 to 245 °C
CNC(=O)Nc1cc(-c2cccc(NC(=O)N3CC(OC(C)(C)C)C3)c2C)cn2ccnc12 [Example I-75, 3-tert-Butoxy-azetidine-1-carboxylic acid {2-methyl-3-[8-(3-methyl-ureido)-imidazo[1,2-a]pyridin-6-yl]-phenyl}-amide] | 158 to 161 °C
CNC(=O)Nc1cc(-c2ccccc2)nn2ccnc12 [Example I-13, 1-Methyl-3-(6-phenyl-imidazo[1,2-b]pyridazin-8-yl)-urea] | 192 to 193 °C
CC(=O)Nc1cc(-c2cccc(NC(=O)c3ccc(C(C)(C)C)cc3)c2C)cn2ccnc12 [Example I-57, N-[3-(8-Acetylamino-imidazo[1,2-a]pyridin-6-yl)-2-methyl-phenyl]-4-tert-butyl-benzamide] | 132 to 133 °C
Cc1c(NC(=O)c2ccc(N(C)C)cc2)cccc1-c1cc(NC(=O)NCCCO)c2nccn2c1 [Example I-69, 4-Dimethylamino-N-(3-{8-[3-(3-hydroxy-propyl)-ureido]-imidazo[1,2-a]pyridin-6-yl}-2-methyl-phenyl)-benzamide] | 144.1 to 188.6 °C
CNC(=O)Nc1cc(-c2cccc(NC(=O)c3ccc([Si](C)(C)C)cc3)c2C)cn2ccnc12 | 143.5 to 154.4 °C
Cc1c(NC(=O)N2CC(OC(C)(C)C)C2)cccc1-c1cc(NC(=O)NCCCN(C)C)c2nccn2c1 [Example I-70, 3-tert-Butoxy-azetidine-1-carboxylic acid {3-{8-[3-(3-dimethylamino-propyl)-ureido]-imidazo[1,2-a]pyridin-6-yl}-2-methyl-phenyl)-amide] | 129 to 130 °C
Cc1c(NC(=O)c2ccc(C(C)(C)C)cc2)cccc1-c1cc(Nc2nccs2)c2nccn2n1 [Example I-12, 4-tert-Butyl-N-{2-methyl-3-[8-(thiazol-2-ylamino)-imidazo[1,2-b]pyridazin-6-yl]-phenyl}-benzamide] | 178 to 179 °C
Cc1c(NC(=O)c2ccc(C(C)(C)C)cc2)cccc1-c1cc(NC(N)=O)c2nccn2c1 [Example I-67, 4-tert-Butyl-N-[2-methyl-3-(8-ureido-imidazo[1,2-a]pyridin-6-yl)-phenyl]-benzamide] | 185.4 to 215 °C

Next, values leading:

melting point | Structure (SMILES)
147.1 to 151.7 °C | CNC(=O)Nc1cc(-c2cccc(NC(=O)c3ccc(OC(C)C)cc3)c2C)cn2ccnc12 [Example I-81, 4-Isopropoxy-N-[2-methyl-3-[8-(3-methyl-ureido)-imidazo[1,2-a]pyridin-6-yl]-phenyl}-benzamide]
147.6 to 152.9 °C | CNC(=O)Nc1cc(-c2cccc(NC(=O)c3ccc(OC)cc3)c2C)cn2ccnc12 [Example I-78, 4-Methoxy-N-{2-methyl-3-[8-(3-methyl-ureido)-imidazo[1,2-a]pyridin-6-yl]-phenyl}-benzamide]
136.8 to 147.5 °C | CC(O)(C#CCNC(=O)Cc1cccc(-c2cc(Nc3ccc(C(=O)N4CCOCC4)cn3)c3nccn3c2)c1)C(F)(F)F (stereo not drawn) [Example I-84, 2-(3-{8-[5-(Morpholine-4-carbonyl)-pyridin-2-ylamino]-imidazo[1,2-a]pyridin-6-yl}-phenyl)-N-(5,5,5-trifluoro-4-hydroxy-4-methyl-pent-2-ynyl)-acetamide]
167 to 168 °C | Cc1c(NC(=O)c2ccc(C(C)(C)C)cc2)cccc1-c1cc(NC(=O)NCCCN2CCN(C)CC2)c2nccn2c1 [Example I-94, 4-tert-Butyl-N-[2-methyl-3-(8-{3-[3-(4-methyl-piperazin-1-yl)-propyl]-ureido}-imidazo[1,2-a]pyridin-6-yl)-phenyl]-benzamide]
129 to 130 °C | CNC(=O)Nc1cc(-c2cccc(CC(=O)NCC#CC(C)(C)C)c2)cn2ccnc12 [Example I-99, N-(4,4-Dimethyl-pent-2-ynyl)-2-{3-[8-(3-methyl-ureido)-imidazo[1,2-a]pyridin-6-yl]-phenyl}-acetamide]
137 to 138 °C | O=C(Cc1cccc(-c2cc(Nc3ccc(C(=O)N4CCOCC4)cn3)c3nccn3c2)c1)N1CC(OC(C(F)(F)F)C(F)(F)F)C1 [Example I-90, 2-(3-{8-[5-(Morpholine-4-carbonyl)-pyridin-2-ylamino]-imidazo[1,2-a]pyridin-6-yl}-phenyl)-1-[3-(2,2,2-trifluoro-1-trifluoromethyl-ethoxy)-azetidin-1-yl]-ethanone]
148.4 to 153.2 °C | CNC(=O)Nc1cc(-c2cccc(NC(=O)c3ccc(OC(F)(F)F)cc3)c2C)cn2ccnc12 [Example I-79, N-{2-Methyl-3-[8-(3-methyl-ureido)-imidazo[1,2-a]pyridin-6-yl]-phenyl}-4-trifluoromethoxy-benzamide]
176 to 177 °C | Cc1c(NC(=O)c2ccc(C(C)(C)C)cc2)cccc1-c1cc(NC(=O)NCCO)c2nccn2c1 [Example I-71, 4-tert-Butyl-N-(3-{8-[3-(2-hydroxy-ethyl)-ureido]-imidazo[1,2-a]pyridin-6-yl}-2-methyl-phenyl)-benzamide]
198 to 200 °C | Cc1c(NC(=O)c2ccc(C(O)(C(F)(F)F)C(F)(F)F)cc2)cccc1-c1cc(NC(=O)NCCCN(C)C)c2nccn2c1 [Example I-98, N-(3-{8-[3-(3-Dimethylamino-propyl)-ureido]-imidazo[1,2-a]pyridin-6-yl}-2-methyl-phenyl)-4-(2,2,2-trifluoro-1-hydroxy-1-trifluoromethyl-ethyl)-benzamide]
144 to 145 °C | Cc1c(NC(=O)c2ccc(N(C)C)cc2)cccc1-c1cc(NC(=O)NCCCN2CCN(C)CC2)c2nccn2c1 [Example I-72, 4-Dimethylamino-N-[2-methyl-3-(8-{3-[3-(4-methyl-piperazin-1-yl)-propyl]-ureido}-imidazo[1,2-a]pyridin-6-yl)-phenyl]-benzamide]
